Data reported in US20250281460A1, “PEGYLATED BILIRUBIN FOR THE TREATMENT OF […], OBESITY, FATTY LIVER DISEASE, CARDIOVASCULAR DISEASES AND TYPE II DIABETES” (The University of Toledo, priority 2019, published 2025).

Experiments:
PPARα = target: T1, PPARα (Mus musculus, UniProt P23204)
T1 sequence (P23204 1-468): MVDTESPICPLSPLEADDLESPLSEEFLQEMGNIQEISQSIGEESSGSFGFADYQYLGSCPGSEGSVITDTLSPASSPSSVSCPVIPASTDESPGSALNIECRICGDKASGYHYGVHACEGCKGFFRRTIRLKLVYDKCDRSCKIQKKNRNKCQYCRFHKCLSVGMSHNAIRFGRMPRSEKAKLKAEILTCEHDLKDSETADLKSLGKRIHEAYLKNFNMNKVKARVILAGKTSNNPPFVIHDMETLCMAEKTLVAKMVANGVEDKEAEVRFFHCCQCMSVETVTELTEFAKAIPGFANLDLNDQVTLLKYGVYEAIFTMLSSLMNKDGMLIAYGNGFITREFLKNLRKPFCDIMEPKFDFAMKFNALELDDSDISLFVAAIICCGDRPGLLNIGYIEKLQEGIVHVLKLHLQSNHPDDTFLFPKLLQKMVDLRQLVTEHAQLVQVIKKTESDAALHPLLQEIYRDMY
Description: Cells were crosslinked with formaldehyde with a final concentration of 1% in media while shaking at room temperature for 10 min. The activity of the formaldehyde was quench with the addition of glycine while rocking for 5 min at room temperature. Cells were washed twice with 1×PBS, collected into a 15 ml conical tube and spun down at 3,000 rpm for 5 min. Pellets were rapidly frozen on dry ice ethanol mix and stored at −80° C. for a minimum of 1 hour or immediately resuspended in a series of lysis buffers (see table for ChIP buffer table) containing protease inhibitors for 5 min. Cells were sonicated for approximately 8 min per sample. The lysates were centrifuged for 10 min at 4° C. at 13,000 rpm. The lysates were pre-cleared in BSA/Salmon sperm blocked beads rotating for 2 hours at 4° C. […] Lysates were then incubated with Agarose A beads and rotated for 4 hours at 4° C. The samples were then washed with a ChIP washing buffer (see table for ChIP buffer table) 5 times. The protein was eluted in an Elution buffer at 65° C. for 30 min shaking every 2 min. The eluted samples were transferred to another tube and incubated at 65° C. overnight to reverse crosslinking. The samples were purified after 1-hour incubation with Proteinase K at 55° C. with a isopropanol/chloroform/ethanol mixture. DNA was quantified on a NanoDrop 2000 spectrophotometer (Thermo Fisher Scientific, Wilmington, DE). PCR amplification of the genomic DNA was performed by quantitative real-time PCR using TrueAmp SYBR Green qPCR SuperMix (Advance Bioscience). The thermocycling protocol consisted of 2 min at 50° C. and then 10 min at 95° C., 48 cycles of 30 sec at 95° C., 1 min at 65° C.

3T3-PPARγ2 cells = experiment: SeaHorse mitochondrial respiration and gene activity in 3T3-PPARγ2 cells; assay type: cell-based, mouse; details: 3T3-L1 cells overexpressing PPARγ2
Description: To investigate the specific role of bilirubin on PPARα or PPARγ as well as mitochondrial function and gene regulation, 3T3-LI cells that overexpressed each receptor (3T3-PPARα or 3T3-PPARγ2) were generated via lentivirus (FIGS. 2A-2B). […] The 3T3-Vector cells had no responses to biliverdin in FIGS. 2A-2B.
Cellular respiration was quantified using the Seahorse Extracellular Flux Analyzer XF-96 (Agilent Technologies, Cedar Creek, TX). The Seahorse XF Cell Mito Stress Test Kit (Agilent Technologies, Cat #103015-100) was used for analysis of cellular respiration. BAT or 3T3-L1 cells were seeded on a XF96 cell culture microplate (Agilent 101085-004) at 20,000 cells per well. Cells were then differentiated as previously described for 9 days. […] The oxygen consumption rate (OCR) and extracellular acidification rate (ECAR) were used to quantify the cellular energy phenotype of the cells. After treatment, cells were washed twice with Seahorse Bioscience Assay Media (XF Base media with 25 mM Glucose, 2 mM […], and 1 mM Sodium Pyruvate) then incubated with the buffer for 1 hour in a non-CO2 incubator. The Seahorse Cartridge ports were loaded with […] of assay media with […] FCCP, 10 μM Oligomycin, 5 μM Rotenone/Antimycin A in different ports an hour before assay. […] The raw data and graphs were supplied as an Excel File or Graphpad Prizm file.

[1] = system: BAT PPARα CRISPR KO cells; experiment: Seahorse analysis in BAT PPARα CRISPR KO cells; assay type: cell-based, mouse; details: both KO clones, 24 hours
Description: To further delineate the actions of bilirubin on BAT, CRISPR technology was developed to knockout (KO) PPARα and establish two null clone lines. […]. The function of the ligands was lost in both clones for the BAT PPARα CRISPR KO cells.
CRISPR-Technology was employed in BAT as previously described to excise part of Exon 3 and Exon 4 of the PPARα gene to create a PPARα Knockout BAT cell line. Two sgRNAs with high efficacy and low off-target scores were identified on Exon 3 and 4 of the mouse PPARα gene using Benchling online software. The two Cas9 targets were separated by 9,465 bases. All of the off-targets to our PPARα sgRNA had 4 mismatches, of which at least 1-2 were within the seed region (up to 12 bases proximal to the protospacer adjacent motif (PAM) site) which reduces the likelihood of Cas9 off-target effects. The multiplex sgRNAs were generated using the PrecisionX Multiplex gRNA Cloning Kit according to manufacturer instructions. […] After 36 h of transfection, cells with the top 10% level of fluorescence were single-sorted into 96-well plates by fluorescent activated cell sorting. […]
Cellular respiration was quantified using the Seahorse Extracellular Flux Analyzer XF-96 (Agilent Technologies, Cedar Creek, TX). […] The oxygen consumption rate (OCR) and extracellular acidification rate (ECAR) were used to quantify the cellular energy phenotype of the cells. […]

- PPARα occupancy at the 13K enhancer of the Ucp1 (PPARα; 50 μM, 24 hours): significantly increased
- PPARα occupancy at the −3306 to −3109 region of the Cpt1 promoter (PPARα; 50 μM, 24 hours): significantly increased
- occupancy of PPARα at 13K enhancer of the Ucp1 (PPARα; BAT cells): increased
- occupancy of PPARα at the Cpt1 promoter (PPARα; BAT cells): increased
- occupancy of PPARα at the enhancer region of the Adrb3 promoter (PPARα; BAT cells): intensified
SMILES: C=CC1=C(C)/C(=C/C2=NC(=C\c3[nH]c(/C=C4\NC(=O)C(C)=C4C=C)c(C)c3CCC(=O)O)/C(CCC(=O)O)=C2C)NC1=O [biliverdin]
- gene related activity (3T3-PPARγ2 cells): did not have significant increase
- mitochondrial respiration (3T3-PPARγ2 cells): no significant changes
- function of the ligands on mitochondrial function (OCR) [1]: lost
